The record followed here is BindingDB's records for doi:10.7270/Q2CN728N (Nmmlsc, 2008).

Molecules are shown by their SMILES. pEC50: −log10 of the molar value.

One test addresses T1, Bcl-2-related protein A1 (Homo sapiens, UniProt Q16548).
T1 sequence (Q16548 whole entry): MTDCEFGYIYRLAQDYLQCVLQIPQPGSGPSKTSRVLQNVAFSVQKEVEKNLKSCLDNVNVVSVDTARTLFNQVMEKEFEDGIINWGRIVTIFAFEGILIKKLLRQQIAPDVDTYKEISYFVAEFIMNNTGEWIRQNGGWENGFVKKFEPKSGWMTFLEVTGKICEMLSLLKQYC
The test can be described thus: inhibitors of Bim binding to Bfl-1, dose response, biochemical, multiplexed, bead-based flow cytometry (AID 1320). As to conditions: inactive by the depositor's call; pH 7.4; 4 °C.
`NC(=O)c1c(N)sc2c1CCCCC2` [SMR000066289]: the pEC50 is 5.52. The same measure, in the same setting: for `Nc1c(C(=O)NCc2ccco2)sc2nc3c(cc12)C(=O)CCC3` [SMR000072940] the value was 4.24; for `CN(C)c1ccc(Nc2nc(-c3cccnc3)cs2)cc1` [SMR000104797], 6.07; for `CNC(=O)c1c(N)sc2c1CCCCC2` [SMR000111700], 5.39. Compound `CNc1ccc(Br)cc(C(=O)/C=C/c2cc(OC)ccc2OC)c1=O` [SMR000115626] gave a negative logarithm of the EC50 (pEC50) of 4.82. Still for that read-out and setting: for `O=C(Nc1ccc2nc(-c3ccco3)c(-c3ccco3)nc2c1)NC1CC1` [SMR000118524] the value was 5.41; for `O=C(NCCO)c1ccc2nc(-c3ccco3)c(-c3ccco3)nc2c1` [SMR000121771], 5.50. In turn, `N#Cc1ccc(/N=c2/ssnc2Cl)cc1` [SMR000130044] gave a pEC50 of 4.17. `COc1ccc(OC)c(-n2c(S)nnc2-c2ccc(C)cc2)c1` [SMR000155418] gave a pEC50 of 5.52. Consider `Nc1ccc(C2=Nc3cccc4cccc(c34)N2)cc1` [SMR000175908], for which the pEC50 was 4.79. Same read-out and setting: as for `S=c1[nH]cc(-c2ccccc2)n1-c1ccccc1` [SMR000196363], the figure is 5.72. The same measure, in the same setting: for `CCC(=O)OCCNc1cc(Sc2nccn2C)c2nonc2c1[N+](=O)[O-]` [SMR000207033] the value was 4.57; for `CCN1C(=O)/C(=C\C=C2/C=CC=CN2CC)SC1=S` [SMR000225150], 5.40. Compound `CNc1ccc(Br)cc(C(=O)/C=C/c2ccc(OC)cc2)c1=O` [SMR000229850] showed a negative logarithm of the EC50 (pEC50) of 4.82. Same read-out and setting: for `CCN(CC)c1ccc(NC(=O)c2ccccc2F)cc1S(=O)(=O)Nc1ccccc1OC` [SMR000241522] the value was 4.91. In turn, `O=C1c2ccccc2-c2onc3ccc(N4CCCC4)c1c23` [SMR000279741] had a negative-log EC50 (pEC50) of 4.61. On the same count and under the same terms, for `COc1ccccc1-n1c(-c2cc(-c3ccc(F)cc3)[nH]n2)n[nH]c1=S` [SMR000293072] the value was 5.30; for `COc1cc(OC)c([N+](=O)[O-])cc1[CH+][N-]NC(=O)c1ccncc1` [SMR000306621], 4.37; for `O=c1c2c(-c3ccccc3)csc2nc2c3ccccc3c(NCCN3CCOCC3)nn12` [SMR000352519], 4.52. Still for that read-out and setting: for `CCOC(=O)CSC1=NC(=O)/C(=C/c2ccc(Br)cc2)S1` [ethyl 2-[[(5Z)-5-[(4-bromophenyl)methylidene]-4-oxo-1,3-thiazol-2-yl]sulfanyl]acetate] the value was 6.26.

The test is the same for the next values; noted with them: pH 7.4; 4 °C.
For `Cc1cc2nn(-c3cccc4ccccc34)nc2cc1N` [SMR000076237], the pEC50 is 5.87. As to `COc1cc(/N=c2/ssnc2Cl)c(OC)cc1Cl` [SMR000130043], the negative logarithm of the EC50 (pEC50) is 5.19. In the case of `CCC(=O)OCCNc1cc(Sc2nc3ccccc3s2)c2nonc2c1[N+](=O)[O-]` [SMR000131460], the pEC50 was 7.10. The same measure, in the same setting: as for `CCOC(=O)C1=C(Cc2ccc(OC)cc2)C(=O)c2ccccc2C1=O` [SMR000136995], the figure is 5.30. Same read-out and setting: as for `O=C(Nc1cccc(C(F)(F)F)c1)c1ccc2nc(-c3ccco3)c(-c3ccco3)nc2c1` [SMR000142217], the figure is 5.53; as for `COC(=O)c1c(C(=O)OC)c2cccc3cc(-c4ccccc4)c4ccc1c4n32` [SMR000161417], 5.95; as for `O=c1[nH]c2ccc(N=Cc3c(O)ccc4cc(Br)ccc34)cc2[nH]1` [SMR000171789], 5.35. Still for that read-out and setting: for `CCOC(=O)CSC1=NC(=O)/C(=C\c2ccc(OC(C)=O)cc2)S1` [SMR000180755] the value was 5.48.

For `C#CCn1cc(C=C2C(=O)c3ccccc3C2=O)c2ccccc21` [SMR000196125], the pEC50 is 5.02. On the same count and under the same terms, as for `CCC(=O)OCCNc1cc(Sc2nc3ccccc3[nH]2)c2nonc2c1[N+](=O)[O-]` [SMR000207032], the figure is 5.79; as for `Cc1ccc(-c2nc(N3CCOCC3)s[n+]2-c2ccccc2)cc1` [SMR000225370], 7.70.

Compound `CNCc1ccccc1Sc1ccc(O)c(O)c1` [SMR000230497] had a negative logarithm of the EC50 (pEC50) of 4.50. Same read-out and setting: as for `Oc1ccc(NCc2ccccc2OCc2ccccc2)cc1` [SMR000231540], the figure is 5.95.

Consider `CN=c1scc(-c2cccs2)n1N=Cc1ccc(O)c(O)c1O` [SMR000242177], for which the pEC50 is 5.24. On the same count and under the same terms, as for `Nc1c(C(=O)NCC2CCCO2)sc2nc3c(c(-c4ccco4)c12)CC/C3=C\c1ccco1` (stereo not given) [SMR000259502], the figure is 6.06.

Consider `Nc1c(C(=O)NC2CC2)sc2nc3c(c(-c4ccco4)c12)CC/C3=C/c1ccco1` [SMR000259554], for which the negative-log EC50 (pEC50) is 5.96. On the same count and under the same terms, as for `Cc1nc2scc(-c3ccccc3)c2c(=O)n1N=C1C=CC(=O)C=C1` [SMR000285999], the figure is 6.25. The same measure, in the same setting: for `C=C[S+]([O-])c1sc(Cl)c(N2CCOCC2)c1[N+](=O)[O-]` (stereo not given) [SMR000293370] the value was 6.07.

Regarding `CC1CC(=Cc2cccc(F)c2)C2=NC(=S)NC(c3cccc(F)c3)C2C1` (stereo not given) [SMR000306148], the negative logarithm of the EC50 (pEC50) is 4.82. The same measure, in the same setting: as for `CC(=NNC(=O)c1cc(O)c(O)c(O)c1)c1ccc([N+](=O)[O-])cc1` [SMR000312589], the figure is 5.17; as for `O=C(O)c1ccc(NC2=CC(=NS(=O)(=O)c3ccccc3)c3ccccc3C2=O)cc1` [SMR000313157], 5.04; as for `CCN1/C(=C/C(C)=C/c2sc3ccccc3[n+]2CC)Sc2ccccc21` [SMR000354813], 4.39.

The compound `CCN(CC)C(=O)COC(=O)c1cc(-c2ccco2)nc2ccccc12` [SMR000377201] had a pEC50 of 5.99. On the same count and under the same terms, for `Cn1c(=O)c(C(=O)COC(=O)c2cc(-c3ccco3)nc3ccccc23)c(N)n(Cc2ccccc2)c1=O` [[2-(6-amino-1-benzyl-3-methyl-2,4-dioxopyrimidin-5-yl)-2-oxoethyl] 2-(furan-2-yl)quinoline-4-carboxylate] the value was 5.75. As for `CCOC(=O)C1=C(Cc2ccc(C)cc2)C(=O)c2ccccc2C1=O` [ethyl 3-[(4-methylphenyl)methyl]-1,4-bis(oxidanylidene)naphthalene-2-carboxylate], the pEC50 was 5.49.
